Experiment [1] relates to human prostate cancer cell line PC3. The experiment can be described thus: Aminolevulinic acid (with FeCl2 and ascorbic acid at the same concentration) labeling, fluorescence microscopy image analysis (positive rate). It counts as cell-based. An excerpt: (§1) In accordance with the conventional method, cultured human prostate cancer cell line PC3 (DS Pharma Biomedical Co., Ltd.) was harvested with trypsin (Invitrogen). The human gastric cancer cell line SNU-1 (ATCC), which is a suspension cell line, was directly harvested without any trypsin treatment. The cell suspension of the harvested cancer cells was centrifuged, and the supernatant was removed. The cells were resuspended with Dulbecco's PBS (+) (Nissui Pharmaceutical Co., Ltd.) and centrifuged, and the supernatant was removed again.
When performing the hemolyzing treatment, the collected blood cell fraction was hemolyzed using ammonium chloride (STEMCELL Technologies) at room temperature according to the manufacture's manuals.
(§2) The number of the cells was counted using a hemacytometer in accordance with the conventional method, and then 10^5 to 10^6 cells per sample (cell suspension) was aliquoted. The sample was centrifuged to remove the supernatant. Subsequently, aminolevulinic acid 5-AMINOLEVULINATE HYDROCHLORIDE (trade name, Cosmo Bio Co., Ltd., at the final concentration given in Table 7 or 8) dissolved in Dulbecco's PBS (+) and FeCl2 and ascorbic acid having the same concentration as that of aminolevulinic acid, respectively, were added thereto, and the cells were suspended well. The number of the cells was adjusted, and then the cells were added dropwise to a 384-well plate. The plate was centrifuged to spin down the cells. The image was captured with a fluorescence microscope (Nikon Corp.).
(§3) The wavelengths for the fluorescence filter set: EX (excitation wavelength): 402±7.5, DM: 430 or longer, BA (fluorescence wavelength): 625±15.
(§4) The acquired images were analyzed using an image analysis software NIS-ELEMENTS (trade name, Nikon Corp.) to evaluate the fluorescence intensity of the cell. […]

The test system of experiment [2] is human alveolar epithelial cancer cells (NCI-H358). The experiment can be described thus: Aminolevulinic acid (with FeCl2 and ascorbic acid) labeling, fluorescence microscopy image analysis (positive rate). The format is cell-based. As to conditions: hemolyzed, 0.3 mM, 60 min, 37° C., threshold value 212.
From the text: as §2, §3
The acquired images were analyzed using an image analysis software NIS-ELEMENTS (trade name, Nikon Corp.) to evaluate the fluorescence intensity of the cell.
In a manner similar to Example 4, each of human breast adenocarcinoma cells (Cell line name: MCF-7; DS Pharma Biomedical Co., Ltd.), human colon adenocarcinoma cells (Cell line name: SW620; DS Pharma Biomedical Co., Ltd.), human prostate cancer cells (Cell line name: PC3; DS Pharma Biomedical Co., Ltd.), human alveolar epithelial cancer cells (Cell line name: NCI-H358; DS Pharma Biomedical Co., Ltd.), human gastric cancer cells (Cell line name: SNU-1; ATCC) and human fibrosarcoma cells (Cell line name: HT1080; DS Pharma Biomedical Co., Ltd.) was detected with aminolevulinic acid.

For experiment [3], the system named is human gastric cancer cells (SNU-1). Described as above. As to conditions: hemolyzed, 0.3 mM, 60 min, 37° C., threshold value 198. It counts as cell-based.
From the text: as §1
The number of the cells was counted using a hemacytometer in accordance with the conventional method, and then 10^5 to 10^6 cells per sample (cell suspension) was aliquoted. The sample was centrifuged to remove the supernatant. […] The image was captured with a fluorescence microscope (Nikon Corp.).
as §3, §4

Experiment [4] relates to Mixture of blood cells and PC3 cells. The experiment can be described thus: Aminolevulinic acid labeling combined with anti-CD45/anti-CD34 and anti-EpCAM antibodies. The format is cell-based, human. The following applies: ALA: 0.3 mM, FeC12: 0.3 mM, Ascorbic acid: 0.3 mM, 37° C., 60 min, threshold value 216. An excerpt: Blood was collected from a human subject using a vacuum blood collection tube (with EDTA•2K). Blood cells were separated using HetaSep (STEMCELL Technologies) in accordance with the manufacturer's instructions.
In accordance with the conventional method, cultured human prostate cancer cell line (PC3, DS Pharma Biomedical Co., Ltd.) was harvested with trypsin (Invitrogen). The cell suspension of the harvested cancer cells was centrifuged, and the supernatant was removed. The cells were resuspended with Dulbecco's PBS (+) (Nissui Pharmaceutical Co., Ltd.) and centrifuged, and the supernatant was removed again.
The number of the cells in the suspension of the isolated blood cells was counted using a hemacytometer in accordance with the conventional method. Further, the number of the cells was also counted for the human prostate cancer cell line (PC3) in a similar manner, and the cells were added to the blood cell suspension to give a cell number of 1% of that of the blood cells. […]
The number of the cells was counted using a hemacytometer in accordance with the conventional method, and then 10^5 to 10^6 cells per sample (cell suspension) was aliquoted. […] The image was captured with a fluorescence microscope (Nikon Corp.). Protoporphyrin IX was detected with the fluorescence filter set 1, the PE-labeled anti-EpCAM antibody was detected with the fluorescence filter set 2, and the FITC-labeled anti-CD45 antibody and the FITC-labeled anti-CD34 antibody were detected with the fluorescence filter set 3.
Wavelengths for the fluorescence filter set 1: EX (excitation wavelength) 402±7.5 nm, DM 430 nm or longer, BA (fluorescence wavelength) 625±15 nm.
Wavelengths for the fluorescence filter set 2: EX (excitation wavelength) 535±25 nm, DM 575 nm or longer, BA (fluorescence wavelength) 590 nm or longer.
Wavelengths for the fluorescence filter set 3: EX (excitation wavelength) 475±15 nm, DM 505 nm or longer, BA (fluorescence wavelength) 525±10 nm. […]

`NCC(=O)CCC(=O)O` [aminolevulinic acid, 5-amino-4-oxopentanoic acid]: the “Positive rate (Cancer cells)” value in experiment [1] (Prostate cancer, hemolyzed, 0.3 mM, 60 min, 37° C., threshold value 265) stood at 92.7%; in experiment [2], 94.4%; in experiment [3], 81.6%. Also, the “Positive rate (PC3 cells)” value in experiment [1] (hemolyzed, 0.1 mM, 37° C., 60 min) was 44%; in experiment [1] (hemolyzed, 0.3 mM, 37° C., 60 min (concentration series)), 85%; in experiment [1] (hemolyzed, 1 mM, 37° C., 60 min) it was 88%; in experiment [1] (hemolyzed, 4° C., 0.3 mM, 60 min), 31%; in experiment [1] (hemolyzed, 23° C., 0.3 mM, 60 min), 54%; in experiment [1] (hemolyzed, 37° C., 0.3 mM, 60 min (temperature series)), 80%. For the same molecule, the “Positive rate (PC3 cells)” value was 59% in experiment [1] (hemolyzed, 30 min, 0.3 mM, 37° C.); 93% in experiment [1] (hemolyzed, 60 min, 0.3 mM, 37° C. (time series)); 92% in experiment [1] (hemolyzed, 120 min, 0.3 mM, 37° C.); 54% in experiment [1] (without hemolyzing treatment, 0.1 mM, 37° C., 60 min); 88% in experiment [1] (without hemolyzing treatment, 0.3 mM, 37° C., 60 min (concentration series)); 94% in experiment [1] (without hemolyzing treatment, 1 mM, 37° C., 60 min). In addition, the “Positive rate (PC3 cells)” value stood at 13% in experiment [1] (without hemolyzing treatment, 4° C., 0.3 mM, 60 min); 18% in experiment [1] (without hemolyzing treatment, 23° C., 0.3 mM, 60 min); 83% in experiment [1] (without hemolyzing treatment, 37° C., 0.3 mM, 60 min (temperature series)); 80% in experiment [1] (without hemolyzing treatment, 30 min, 0.3 mM, 37° C.); 81% in experiment [1] (without hemolyzing treatment, 60 min, 0.3 mM, 37° C. (time series)); 84% in experiment [1] (without hemolyzing treatment, 120 min, 0.3 mM, 37° C.). Also, in experiment [4] (FITC-α-CD45/CD34 antibody), the “False-positive rate (using α-CD45/34)” value came to 0.0%. Further, the Positive rate in experiment [4] (PC3 at 1% of blood cells, hemolyzed) came out at 85%. The “False-positive rate (without using α-CD45/34)” value in experiment [4] was found to be 1.1%.
